Assay results reported in BindingDB's records for doi:10.1016/j.bmc.2004.11.045 (Yamanouchi Pharmaceutical, 2005).

How the values were obtained:
Experiment in all cases: HIV-1 RT Assay
[1] = molecular target: T1, Gag-Pol polyprotein [588-1027]/[588-1147] (Human immunodeficiency virus 1, UniProt P04585)
T1 construct: 588-1027; 588-1147
Source text: (§1) The IC50 of reverse transcriptase is the concentration that inhibits 50% of recombinant HIV-1 RT RNA-directed DNA polymerase activity in vitro.

[2] = molecular target: T2, Gag-Pol polyprotein [588-1027,K690N]/[588-1147,K690N] (Human immunodeficiency virus 1, UniProt P04585, K690N)
T2 construct: 588-1027; 588-1147
Source text: as §1

[3] = molecular target: T3, Gag-Pol polyprotein [588-1127,Y768C]/[588-1147,Y768C] (Human immunodeficiency virus 1, UniProt P04585, Y768C)
T3 construct: 588-1127; 588-1147
Source text: as §1

Row | SMILES | IC50 [1] | IC50 [2] | IC50 [3] | IC50 ([1]; pH 8.4, 37 °C) | IC50 ([2]; pH 8.4, 37 °C) | IC50 ([3]; pH 8.4, 37 °C)
1 | Cc1c(C(C)(C)C)s/c(=N\S(=O)(=O)c2cc(Cl)ccc2O)n1C [N-(5-tert-Butyl-3,4-dimethyl-1,3-thiazol-2(3H)-ylidene)-5-chloro-2-hydroxybenzenesulfonamide] | 0.032 µM | 1.1 µM | 0.011 µM |  |  | 
2 | Cc1c(C(C)(C)C)s/c(=N\S(=O)(=O)c2ccccc2[N+](=O)[O-])n1C [N-[(2Z)-5-tert-butyl-3,4-dimethyl-2,3-dihydro-1,3-thiazol-2-ylidene]-2-nitrobenzene-1-sulfonamide] |  |  |  | > 50 µM | > 50 µM | 36 µM
3 | COC(=O)c1ccc(Cl)cc1S(=O)(=O)/N=c1\sc(C(C)(C)C)c(C)n1C [methyl 2-{[(2Z)-5-tert-butyl-3,4-dimethyl-2,3-dihydro-1,3-thiazol-2-ylidene]sulfamoyl}-4-chlorobenzoate] | > 10 µM | > 10 µM | 10 µM |  |  | 
4 | COc1ccccc1S(=O)(=O)/N=c1\sc(C(C)(C)C)c(C)n1C [N-(5-tert-Butyl-3,4-dimethyl-1,3-thiazol-2(3H)-ylidene)-2-methoxybenzenesulfonamide] |  |  |  | 50 µM | > 50 µM | 
5 | CC(C)c1s/c(=N\S(=O)(=O)c2cc(Cl)ccc2O)n(C)c1Cl [5-chloro-N-[(2Z)-4-chloro-3-methyl-5-(propan-2-yl)-2,3-dihydro-1,3-thiazol-2-ylidene]-2-hydroxybenzene-1-sulfonamide] | 0.0094 µM | 0.17 µM | 0.021 µM |  |  | 
6 | CC(C)c1s/c(=N\S(=O)(=O)c2cc(Br)ccc2O)n(C)c1Cl [5-bromo-N-[(2Z)-4-chloro-3-methyl-5-(propan-2-yl)-2,3-dihydro-1,3-thiazol-2-ylidene]-2-hydroxybenzene-1-sulfonamide] | 0.0043 µM | 0.043 µM | 0.013 µM |  |  | 
7 | Cc1c(C(C)C)s/c(=N\S(=O)(=O)c2cc(C#N)ccc2C#N)n1C [thiazolidenebenzenesulfonamide deriv.] | 0.012 µM | 4.1 µM | 0.47 µM |  |  | 
8 | Cc1c(C(C)(C)C)s/c(=N\S(=O)(=O)c2ccc(Cl)cc2)n1C [N-(5-tert-Butyl-3,4-dimethyl-1,3-thiazol-2(3H)-ylidene)-4-chlorobenzenesulfonamide] |  |  |  | > 10 µM | > 10 µM | > 10 µM
9 | COc1cccc(S(=O)(=O)/N=c2\sc(C(C)(C)C)c(C)n2C)c1 [N-[(2Z)-5-tert-butyl-3,4-dimethyl-2,3-dihydro-1,3-thiazol-2-ylidene]-3-methoxybenzene-1-sulfonamide] | 8.8 µM | > 50 µM |  |  |  | 
10 | CC(C)c1s/c(=N\S(=O)(=O)c2cc(Cl)ccc2C#N)n(C)c1Cl [5-Chloro-N-(4-chloro-5-isopropyl-3-methyl-1,3-thiazol-2(3H)-ylidene)-2-cyanobenzenesulfonamide] | 0.009 µM | 3.7 µM | 0.091 µM |  |  | 
11 | Cc1c(C(C)(C)C)s/c(=N\S(=O)(=O)c2ccc(O)cc2)n1C [N-(5-tert-Butyl-3,4-dimethyl-1,3-thiazol-2(3H)-ylidene)-4-hydroxybenzenesulfonamide] | > 10 µM | > 10 µM | > 10 µM |  |  | 
12 | COc1ccc(S(=O)(=O)/N=c2\sc(C(C)(C)C)c(C)n2C)cc1 [N-(5-tert-Butyl-3,4-dimethyl-1,3-thiazol-2(3H)-ylidene)-4-methoxybenzenesulfonamide] | > 10 µM | > 10 µM | > 10 µM |  |  | 
13 | Cc1c(C(C)(C)C)s/c(=N\S(=O)(=O)c2ccc([N+](=O)[O-])cc2)n1C [N-(5-tert-Butyl-3,4-dimethyl-1,3-thiazol-2(3H)-ylidene)-4-nitrobenzenesulfonamide] |  |  |  | > 10 µM | > 10 µM | > 10 µM
14 | Cc1c(C(C)(C)C)s/c(=N\S(=O)(=O)c2ccccc2Cl)n1C [N-[(2Z)-5-tert-butyl-3,4-dimethyl-2,3-dihydro-1,3-thiazol-2-ylidene]-2-chlorobenzene-1-sulfonamide] |  |  |  | > 10 µM | > 10 µM | > 10 µM
15 | Cc1c(C(C)(C)C)s/c(=N\S(=O)(=O)c2cc(Cl)ccc2C(N)=O)n1C [2-{[(5-tert-Butyl-3,4-dimethyl-1,3-thiazol-2(3H)-ylidene)amino]sulfonyl}-4-chlorobenzamide] | > 10 µM | > 10 µM | > 10 µM |  |  | 
16 | Cc1c(C(C)(C)C)s/c(=N\S(=O)(=O)c2cc(Cl)ccc2[N+](=O)[O-])n1C [N-[(2Z)-5-tert-butyl-3,4-dimethyl-2,3-dihydro-1,3-thiazol-2-ylidene]-5-chloro-2-nitrobenzene-1-sulfonamide] | 2.4 µM | > 50 µM |  |  |  | 
17 | Cc1c(C(C)C)s/c(=N\S(=O)(=O)c2cc(Cl)ccc2C#N)n1C [5-chloro-2-cyano-N-[(2Z)-3,4-dimethyl-5-(propan-2-yl)-2,3-dihydro-1,3-thiazol-2-ylidene]benzene-1-sulfonamide] | 0.011 µM | 5.9 µM | 0.2 µM |  |  | 
18 | Cc1c(C(C)(C)C)s/c(=N\S(=O)(=O)c2ccccc2)n1C | 4.9 µM | > 50 µM | 5.1 µM |  |  | 
19 | Cc1c(C(C)(C)C)s/c(=N\S(=O)(=O)c2cccc(Cl)c2)n1C [N-[(2Z)-5-tert-butyl-3,4-dimethyl-2,3-dihydro-1,3-thiazol-2-ylidene]-3-chlorobenzene-1-sulfonamide] |  |  |  | 0.3 µM | 11 µM | 0.044 µM
20 | CC(C)c1s/c(=N\S(=O)(=O)c2cc(C#N)ccc2C#N)n(C)c1Cl [N-(4-Chloro-5-isopropyl-3-methyl-1,3-thiazol-2(3H)-ylidene)-2,5-dicyanobenzenesulfonamide] | 0.0095 µM | 3 µM | 0.21 µM |  |  | 
21 | Cc1c(C(C)C)s/c(=N\S(=O)(=O)c2cc(F)ccc2C#N)n1C [2-cyano-N-[(2Z)-3,4-dimethyl-5-(propan-2-yl)-2,3-dihydro-1,3-thiazol-2-ylidene]-5-fluorobenzene-1-sulfonamide] | 0.092 µM | > 10 µM | 2.1 µM |  |  | 
22 | Cc1c(C(C)C)s/c(=N\S(=O)(=O)c2cc(Br)ccc2C#N)n1C [5-Bromo-2-cyano-N-(5-isopropyl-3,4-dimethyl-1,3-thiazol-2(3H)-ylidene)benzenesulfonamide] | 0.018 µM | 3.9 µM | 0.26 µM |  |  | 
23 | Cc1c(C(C)(C)C)s/c(=N\S(=O)(=O)c2cccc(O)c2)n1C [N-[(2Z)-5-tert-butyl-3,4-dimethyl-2,3-dihydro-1,3-thiazol-2-ylidene]-3-hydroxybenzene-1-sulfonamide] | 8.8 µM | > 50 µM | 14 µM |  |  | 
24 | Cc1c(C(C)(C)C)s/c(=N\S(=O)(=O)c2cc(Cl)ccc2N)n1C [2-amino-N-[(2Z)-5-tert-butyl-3,4-dimethyl-2,3-dihydro-1,3-thiazol-2-ylidene]-5-chlorobenzene-1-sulfonamide] | 0.19 µM | 17 µM | 0.11 µM |  |  | 
25 | CC(=O)Nc1ccc(Cl)cc1S(=O)(=O)/N=c1\sc(C(C)(C)C)c(C)n1C [N-(2-{[(5-tert-Butyl-3,4-dimethyl-1,3-thiazol-2(3H)-ylidene)amino]sulfonyl}-4-chlorophenyl)acetamide] | > 50 µM | > 50 µM | > 50 µM |  |  | 
26 | Cc1c(C(C)(C)C)s/c(=N\S(=O)(=O)c2cc(Cl)ccc2C#N)n1C [N-(5-tert-Butyl-3,4-dimethyl-1,3-thiazol-2(3H)-ylidene)-5-chloro-2-cyanobenzenesulfonamide] | 0.18 µM | > 50 µM | 0.069 µM |  |  | 
27 | Cc1c(C(C)(C)C)s/c(=N\S(=O)(=O)c2cc(Cl)ccc2NS(C)(=O)=O)n1C [N-[(2Z)-5-tert-butyl-3,4-dimethyl-2,3-dihydro-1,3-thiazol-2-ylidene]-5-chloro-2-methanesulfonamidobenzene-1-sulfonamide] | > 50 µM | > 50 µM | > 50 µM |  |  | 
28 | Cc1c(C(C)(C)C)s/c(=N\S(=O)(=O)c2cccc(Cl)c2O)n1C [N-[(2Z)-5-tert-butyl-3,4-dimethyl-2,3-dihydro-1,3-thiazol-2-ylidene]-3-chloro-2-hydroxybenzene-1-sulfonamide] | 6.3 µM | > 50 µM |  |  |  | 
29 | Cc1c(C(C)(C)C)s/c(=N\S(=O)(=O)c2ccccc2O)n1C [N-[(2Z)-5-tert-butyl-3,4-dimethyl-2,3-dihydro-1,3-thiazol-2-ylidene]-2-hydroxybenzene-1-sulfonamide] | 1.6 µM | 30 µM | 0.41 µM |  |  | 
